Marks after values point to notes of the source that are not given here.
Tests used:
Format in all cases: cell-based, rat
VSMC-E1A [1] = experiment: Intracellular Na+ and K+ content in VSMC-E1A; details: for Intracellular cations K^+i / Intracellular cations Na^+i: ouabain-treated VSMC-E1A, 1 mM, 6 hours
Description: FIG. 1. Kinetics of modulation of intracellular Na^+ (1, 2) and K^+ (3, 4) content by ouabain in VSMC-E1A (1, 3) and Jurkat cells (2, 4). Cells were preincubated for 24 hours in the presence of 10% calf serum in control medium consisting of 91 mM NaCl, 5 mM KCl, 0.9 mM NaH2PO4, 44 mM NaHCO3, 1.8 mM CaCl2, 0.8 mM MgCl2, 33 mM HEPES and 5 mM D-glucose (pH 7.4) with 2 μCi/ml of ^22Na or 0.5 μCi/ml ^86Rb, and 1 mM ouabain was added at the time interval indicated by the arrow. At specific time-points, intracellular Na^+ and K content + was measured as described in Experimental Procedures. Mean values±S.E. obtained in experiments performed in quadruplicate (VSMC-E1A) or triplicate (Jurkat cells) are given.
To estimate chromatin cleavage, cells were incubated for 1 hr in the presence of 10% calf serum (CS) in the control solution (DMEM, [Na^+]=137 mM; [K^+]=5 mM—line 1) or under equimolar substitution of NaCl by KCl ([Na^+]=14 mM; [K^+]=128 mM—line 2) with or without 1 mM ouabain and then for an additional 6 hours in the same media with or without CS. Intracellular Na^+ and K^+ content was measured as steady-state distribution of isotopes after 24 hours preincubation of cells in control Na^+-enriched solution containing 0.5 μCi/ml ^86Rb or 2 μCilml ^22Na, and additional 6 hours incubation in Na^+—(line 1) or K^+—(line 2) enriched medium, containing 10% CS and isotopes with the same specific activity with or without 1 mM ouabain. For more details see Experimental Procedures. Mean values±S.E. obtained in 3 experiments performed in triplicate (ion content) or quadruplicate (chromatin cleavage) are given. ★p<0.001 compared to ouabain-untreated cells.
Intracellular Na^+ and K^+ content. The intracellular content of exchangeable Na^+ and K^+ was measured as steady-state distribution of extra- and intracellular ^22Na and ^86Rb, as described previously in detail (22). Briefly, to establish the steady-state distribution of isotopes, VSMC growing in 12× (^22Na) or 24× (^86Rb) well plates or ˜10^6 Jurkat cells in suspension were preincubated for 24 hours in DMEM containing 10% calf serum and 0.5 μCi/ml ^86RbCl or 2 μCi/ml ^22NaCl and then treated in media with compositions shown in FIG. 1 and Tables 3 and 4 and with the same specific radioactivity. At the end of incubation, the VSMC were transferred on ice, washed 4 times with 2 ml of ice-cold medium W, containing 100 mM MgCl2 and 10 mM HEPES-tris buffer (pH 7.4), and lysed with SDS/EDTA mixture. One ml of Jurkat cell suspension was applied on a Whatman type C filter with the cells being washed with 3×5 ml aliquots of ice-cold medium W under negative pressure of 20-30 mm Hg. Radioactivity of the incubation medium and cell lysate was measured with a liquid scintillation analyzer and intracellular cation content was determined as A/am, where A was the radioactivity of the samples (cpm), a was the specific radioactivity of Na^+ and K^+(^86Rb) in the medium (cpm/nmol), and m was the protein content determined by Lowry methods.

VSMC = experiment: LDH release (necrosis marker) in VSMC
Description: VSMC growing in 6-well (LDH release) or 24-well (chromatin cleavage assay) plates were preincubated for 3 hours with or without 1 mM ouabain. In part of the experiments, the cells were subjected to 30 min incubation at 46° C. (heat-treated cells, line 3). They were then incubated in the absence or presence of 10% calf serum during additional 8 hr and chromatin cleavage and LDH release were measured as indicated in Experimental Procedures and with a spectrophotometric kit (Sigma), respectively. Means±S.E. from experiments performed in triplicate (LDH release) or quadruplicate (chromatin cleavage) are given. ★, ★★ p<0.05 and 0.001 compared to ouabain-untreated cells. #p<0.001 compared to serum-supplied, heat-untreated cells.

VSMC-E1A [2] = experiment: Cell morphology by phase contrast microscopy in VSMC-E1A; details: 1 mM ouabain pretreatment, 6 hours serum-deprived medium
Description: FIG. 3. Effect of ouabain on morphology (A) and DNA laddering (B and C) in VSMC-E1A. In experiments with ouabain, cells were pretreated with 1 mM of this compound 1 hour before 6 hours exposure to serum-free medium. A. Cell morphology was evaluated by phase contrast microscopy without preliminary fixation. a, c) DMEM containing 10% calf serum; b, d) serum-free DMEM; a, b) without ouabain; c, d) in the presence of ouabain. Micro graphs were prepared using a Nikon phase contrast microscope at ×100 magnification. Apoptotic cells are shown by arrows. B. DNA laddering (left part of the figure) was analyzed with a PhosphorImager, and relative content of low molecular weight DNA fragments (1,500−125 bp−right part of the figure) in cells incubated with 10% calf serum (CS) in the absence of ouabain was taken as 100%. Means±S.E. obtained in 2 experiments performed in triplicate are shown.

C[C@@H]1O[C@@H](O[C@H]2C[C@@H](O)[C@]3(CO)[C@H]4[C@H](O)C[C@]5(C)[C@@H](C6=CC(=O)OC6)CC[C@]5(O)[C@@H]4CC[C@]3(O)C2)[C@H](O)[C@H](O)[C@H]1O [Ouabain, 1β,3β,5,11α,14,19-hexahydroxycard 20 [22]-enolide 3-[6-deoxy-α-L-mannopyrano-sidel]]
intracellular Na^+ content (VSMC-E1A [1]; VSMC-E1A, after 2 hours of 1 mM ouabain (from 38±8)): 283±30 nmol/mg proteins | K^+i content (VSMC-E1A [1]; VSMC-E1A, after 2 hours of 1 mM ouabain (from 405±41)): 131±19 nmol/mg proteins | Na^+i and K^+i content on prolongation of incubation (VSMC-E1A [1]; VSMC-E1A, ouabain for up to 5 hours versus 2 hours): did not significantly modify | Intracellular cations K^+i (VSMC-E1A [1]; medium [Na+]o=14, [K+]o=128 mM): 293 nmol/mg prot | Intracellular cations Na^+i (VSMC-E1A [1]; medium [Na+]o=14, [K+]o=128 mM): 51 nmol/mg prot | Intracellular cations K^+i (VSMC-E1A [1]; medium [Na+]o=137, [K+]o=5 mM): 99 nmol/mg prot | Intracellular cations Na^+i (VSMC-E1A [1]; medium [Na+]o=137, [K+]o=5 mM): 312 nmol/mg prot | LDH release (VSMC; VSMC, 8 hours incubation with ouabain): did not observe any significant effect | heat stress-induced LDH-release (VSMC; VSMC, heat stress 46° C., 30 min, ouabain): did not observe modulation | LDH release (%) (VSMC; serum-deprived VSMC, 3 hours preincubation 1 mM ouabain, additional 8 hr): 1.8 ± 0.4% | LDH release (%) (VSMC; serum-supplied VSMC, 3 hours preincubation 1 mM ouabain, additional 8 hr): 1.2 ± 0.3% | LDH release (%) (VSMC; serum-supplied, heat-treated (46° C., 30 min) VSMC, 1 mM ouabain, 8 hr): 11.0 ± 2.8# % | number of apoptotic cells (VSMC-E1A [2]): sharply decreased the number of apoptotic cells
